Here are results for 1 molecule from patent US11806359B2 (priority 2020, dated 2023).

What all share (format): cell-based
In data set [1] the test system is adenovirus. Kind of data set: Antiviral activity against adenovirus.
In data set [2] the test system is SARS-CoV-2. Put plainly: Direct antiviral activity against SARS-CoV-2, percent infected cells by immunostaining (Example 29). Here is the method: The results are depicted in FIGS. 24A and 24B. […] Potential methods of action include inhibition of viral replication, assembly, and/or egress.
Growth media was removed from confluent monolayers of approximately 10^6 Vero CCL81 cells in 6-well plates. Oleandrin was serially diluted in culture media and added to […]. The growth media was replaced with 200 μl of maintenance media containing either 1.0 μg/ml, 0.5 μg/ml, 100 ng/ml, 50 ng/ml, 10 ng/ml, or 5 ng/ml oleandrin, or matched DMSO-only controls. The plates were incubated at 37° C. for about 30 minutes prior to addition of virus.
SARS-CoV-2 virus was added to Oleandrin treated cells and untreated cells at a MOI (multiplicity of infection) of 0.4 (entry assay) or 0.02 (replication assay). Oleandrin remained in the wells during a 1 hr incubation at 37° C.
After 1 hr absorption, inoculation media was removed and washed 1 time with PBS (standard phosphate buffer saline).
Media alone (no oleandrin) was added back to oleandrin-treated wells designated as “Pretreatment” on data slides. Media with indicated concentrations of oleandrin was added back to wells designated as “Duration” on data slides.
Plates were fixed at either 24 (entry assay) or 48 (replication assay) hours post-infection and immunostained with virus-specific antibody and fluorescently labeled secondary antibody.
Cells were imaged using an Operetta and data was analyzed using custom algorithms in Harmonia software to determine the percent of infected cells in each well.

Data set [3] in a line: In vitro cellular assay for release of lactate dehydrogenase. Here is the method: Proof of the safety of the oleandrin-containing composition was further provided by in vitro cellular assay for determining the release of lactate dehydrogenase after exposure of said cells to solutions containing different concentrations of oleandrin. It was determined that up to concentrations of 1 microg/mL, there was no additional toxicity over control vehicle.

On to `CO[C@H]1C[C@H](O[C@H]2CC[C@@]3(C)[C@H](CC[C@@H]4[C@@H]3CC[C@]3(C)[C@@H](C5=CC(=O)OC5)[C@@H](OC(C)=O)C[C@]43O)C2)O[C@@H](C)[C@@H]1O` [oleandrin], for which the activity against adenovirus entry in data set [1] is on record as “insufficiently active”. In addition, the antiviral activity result in data set [2] (48-h, oleandrin only during the absorption phase (Pre-treatment data)) is on record as “minimal antiviral activity”. In addition, the viral infection entry in data set [2] (48-h, treated for the duration of the assay) is reported as “significantly limited viral infection”. In addition, in data set [2] (24 h, treated for the duration of the assay), the “virus entry and/or viral replication” value is “significantly limited virus entry and/or viral replication”. For the same molecule, in data set [3], the “concentration up to which no additional toxicity over control vehicle” value is at most 1000 ng/mL.
